In ChEMBL document CHEMBL5360664, “Design, Construction, and Screening of Diversified Pyrimidine-Focused DNA-Encoded Libraries” (ACS Med Chem Lett, 2023):

How the values were obtained:
[1] = target: T1, Bromodomain-containing protein 4 (Homo sapiens, UniProt O60885); assay: Binding affinity to human recombinant BRD4BD1 (44 to 168 residues) expressed in Escherichia coli […] (DE3) by fluorescence polarization analysis
[2] = target: T1, Bromodomain-containing protein 4; assay: Binding affinity to human recombinant BRD4BD2 (333 to 460 residues) expressed in Escherichia coli […] (DE3) by fluorescence polarization analysis

SMILES	Ki [1] [nM]	Ki [2] [nM]
CNc1cc(-c2ccc(=O)n(C)c2)nc(NCc2ccc(OC(F)(F)F)cc2)n1	760	> 100000
CNc1cc(-c2ccc(=O)n(C)c2)nc(NCc2cccc3ccccc23)n1	680	> 100000
CNc1nc(NCc2cccc(-c3ccc(=O)n(C)c3)c2)cc(-c2ccc(=O)n(C)c2)n1	910	1440
